Literature values in patent publication US20090227460A1, “STABILIZED OIL-IN-WATER EMULSIONS INCLUDING MEPTYL DINOCAP” (Dow AgroSciences LLC, priority 2008, published 2009).

Substance: 2,6-dinitro-4-octylphenyl crotonates and 2,4-dinitro-6-octylphenyl crotonates in which ‘octyl’ is a mixture of 1-methylheptyl, 1-ethylhexyl and 1-propylpentyl groups [Meptyl Dinocap]
- solubility in water: 0.151 µg/mL
